One experiment addresses T1, RORγ-LBD (Homo sapiens, UniProt P51449).
T1 construct: HIS-tagged RORγ-LBD was recombinantly expressed in SF9 cells; made in house; host or cells: SF9 cells (baculovirus); unpurified lysate
T1 sequence (P51449 269-508 limits assumed): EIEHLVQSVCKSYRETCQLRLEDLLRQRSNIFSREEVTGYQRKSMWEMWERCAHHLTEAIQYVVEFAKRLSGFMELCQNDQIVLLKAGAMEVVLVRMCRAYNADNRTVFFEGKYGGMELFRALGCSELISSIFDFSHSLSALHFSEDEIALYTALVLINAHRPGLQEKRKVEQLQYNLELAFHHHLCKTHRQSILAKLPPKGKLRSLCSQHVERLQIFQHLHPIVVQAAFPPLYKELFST
Briefly: RORγ-Ligand Binding Domain TR-FRET Assay. It counts as biochemical. Conditions: benzoxazines, Table 9. The method, boiled down: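 Unpurified His-tagged LBD in Sf9 lysate (~10 nM final) in 25 mM HEPES pH 7.0, 100 mM NaCl, 0.01% Tween, 0.1% BSA, with biotinylated SRC1-2 LXXLL peptide (450 nM), Eu anti-His (2 nM) and streptavidin-APC (60 nM). Incubated 4 h to overnight; IC50 from 665/615 nm TR-FRET ratio.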

In another experiment the target is T2, RORγt (Homo sapiens, UniProt P51449).
T2 construct: The resulting GAL4-RORγt-LBD fusion construct was placed under the control of a constitutive cytomegalovirus (CMV) promoter; expressed in transfected cells; host or cells: HEK293
T2 sequence (P51449 269-508 limits assumed): T1 sequence (P51449 269-508 limits assumed)
Briefly: RORγ Reporter Assay (GAL4-UAS luciferase reporter in HEK293 cells). The format is cell-based. The note with it: benzoxazines, Table 9; HEK cells. As to the method: Inhibition of RORγt in cells was determined using a GAL4-UAS reporter system in HEK293 cells employing a luciferase readout. The RORγt DNA binding domain (DBD) was replaced with the heterologous yeast GAL4 DBD using standard recombinant DNA methods. The resulting GAL4-RORγt-LBD fusion construct was placed under the control of a constitutive cytomegalovirus (CMV) promoter by cloning it into the CMV-driven mammalian expression vector pcDNA3.1+− (Promega Corporation, Madison, Wis.).
A transcriptional reporter expression construct was used to monitor GAL4-RORγ activity, which contained five copies of the GAL4 binding site enhancer (UAS) controlling expression of a firefly luciferase reporter. This construct, pGL4.31, is commercially available from Promega Corporation, Madison Wis. Both expression constructs were transfected in bulk into HEK-293 cells using standard lipid-based transfection techniques, which allowed the GAL4 RORγ-LBD fusion protein to drive expression of the luciferase reporter. Control transfections were performed with an empty pCDN3.1+ vector.
The next day, cells were plated into 384 well plates, test compound was added, and the plates were incubated overnight. […] Promega firefly assays kits were used to stabilize the luciferase signal, and the intensity of the luciferase signal was measured using an EnVision Multilabel Plate Reader (Perkin Elmer, Waltham, Mass.).
HEK 293 cells are transfected with GAL4-NR construct (CMV:NR-LBD in pcDNA3.1neo) and the pGL4.31 GAL4-luciferase reporter construct (Promega). For a background control, use empty pcDNA3.1neo and pGL4.31. Transfection protocol is for a single T75 flask performed with Minis Trans-It 293 reagent. A 60 μL aliquot of Trans-IT reagent at room temperature is added drop wise to 1.5 mL of Optimem (Invitrogen). The resulting solution is mixed by inversion and incubated for 5-20 minutes at room temperature. This reagent mixture is added to 10 μg of DNA (5 μg of each expression vector used at a concentration of 1 mg/mL). The solution is mixed by inversion and incubated at room temperature for 20 minutes.
While the Trans-IT reagent and DNA are incubating, harvest HEK-293 cells. Remove media from flasks via aspiration and add enough TrypLE Express (stable Trypsin-like reagent, Invitrogen) to cover the bottom of the flask. The mixture is incubated at room temperature until the cells are visibly loose in the flask (approximately 2-5 minutes). Add an equal volume of complete growth media, and then pipette to achieve a single cell suspension. Spin down 1×10^7 cells and re-suspend the cells in 10 mL of complete growth media (DMEM high glucose/10% dialyzed FBS/pen/strep; Invitrogen). The cells and transfection mixture are added to one T75 flask. The contents of the T75 flax are mixed and incubated overnight at 37° C. and 5% CO2.
After 16-24 hours, cells are harvested and plated for test compound screening. Cells may be harvested as described above. Next, cells are counted and an appropriate number of cells are spun down. Then, cells are aspirated and re-suspended in complete growth media at a concentration of 0.5×10^6 cells/mL to provide a cell suspension. Plate 20 μL of the cell suspension into a white, tissue-culture treated 384 well plate. (10,000 cells/well).
A 10 mM stock solution of test compound in dimethylsulfoxide (DMSO) was diluted to 500× the final test concentration in DMSO, then diluted to 5× the final test concentration with complete growth medium to provide the Test Compound Solution. The concentration of DMSO in the Test Compound Solution was […]. A 5 μL aliquot of Test Compound Solution was added to each test well in the 384 well plate previously plated with the cell suspension. Next, plates are spun briefly and incubated overnight at 37° C. and 5% CO2.
After 16-24 hours, the luciferase assay is performed. Plates and luciferase reagent (e.g. One-Glo® or Dual Glo®; Promega, Madison, Wis.) are brought to room temperature.
On the technique in general: In a reporter assay the amount or activity of a reporter protein is the signal.

Where only a bound is given, the exact number is not on record here.

Take `CC(C)(C)CNCC1CN(S(=O)(=O)c2ccc(F)cc2)c2cc(NC(=O)c3c(F)cccc3Cl)ccc2O1` (stereo not shown) [VI-36]: the IC50 on RORγ-LBD and against RORγt was less than 15 µM each time.

Regarding `O=C(Nc1ccc2c(c1)N(S(=O)(=O)c1ccc(F)cc1)CC(CN(CC1CC1)CC1CC1)O2)c1c(F)cccc1Cl` (stereo not shown) [VI-37], the IC50 on RORγ-LBD and on RORγt was less than 15 µM in each case.

Turning to `CCN(CC)CC1CN(S(=O)(=O)c2ccc(F)cc2)c2cc(NC(=O)c3c(F)cccc3Cl)ccc2O1` (stereo not shown) [VI-38], the IC50 on RORγ-LBD and on RORγt was less than 15 µM throughout.

As to `CC(=O)NCC1CN(S(=O)(=O)c2ccc(F)cc2)c2cc(NC(=O)c3c(F)cccc3Cl)ccc2O1` (stereo not shown) [VI-39], the IC50 at RORγ-LBD and on RORγt was less than 15 µM in each case.

Consider `O=C(Nc1cc2c(cc1F)O[C@@H](CO)CN2S(=O)(=O)c1ccc(F)cc1)c1c(Cl)cccc1Cl` [VI-40], for which the IC50 on RORγ-LBD and at RORγt was less than 15 µM each time.

For `O=C(Nc1cc2c(cc1F)O[C@@H](CO)CN2S(=O)(=O)c1ccc(F)cc1)c1c(Cl)cccc1C(F)(F)F` [VI-41], the IC50 on RORγ-LBD and at RORγt was less than 15 µM each time.

For `O=C(Nc1ccc2c(c1)N(S(=O)(=O)c1ccc(F)c(F)c1)C[C@H](CO)O2)c1c(F)cccc1Cl` [VI-42], the IC50 on RORγ-LBD and against RORγt was less than 15 µM each time.

`Cc1cccc(Cl)c1C(=O)Nc1ccc2c(c1)N(S(=O)(=O)c1cccc(C#N)c1)C[C@H](CO)O2` [VI-43]: the IC50 on RORγ-LBD and on RORγt was less than 15 µM each time.

For the compound `Cc1cccc(F)c1C(=O)Nc1ccc2c(c1)N(S(=O)(=O)c1ccc(F)cc1)C[C@H](CO)O2` [VI-44], the IC50 on RORγ-LBD and against RORγt was less than 15 µM throughout.

As to `Cc1cccc(F)c1C(=O)Nc1ccc2c(c1)N(S(=O)(=O)c1cccc(C#N)c1)C[C@H](CO)O2` [VI-45], the IC50 on RORγ-LBD and at RORγt was less than 15 µM throughout.

Consider `COc1ccc(S(=O)(=O)N2C[C@H](CO)Oc3cc(F)c(NC(=O)c4c(F)cccc4Cl)cc32)cn1` [VI-46], for which the IC50 at RORγ-LBD and at RORγt was less than 15 µM in each case.

For the compound `O=C(Nc1cc2c(cc1F)O[C@@H](CO)CN2S(=O)(=O)c1ccc(F)cc1)c1c(F)cccc1Cl` [VI-47], the IC50 on RORγ-LBD and against RORγt was less than 15 µM throughout.

`Cc1cccc(Cl)c1C(=O)Nc1ccc2c(c1)N(S(=O)(=O)c1ccc(F)cc1)C[C@H](CO)O2` [VI-48]: the IC50 on RORγ-LBD and against RORγt was less than 15 µM each time.

Turning to `Cc1cccc(C)c1C(=O)Nc1ccc2c(c1)N(S(=O)(=O)c1ccc(F)cc1)C[C@H](CO)O2` [VI-49], the 50% inhibitory concentration (IC50) at RORγ-LBD and on RORγt was less than 15 µM throughout.

As to `O=C(Nc1ccc2c(c1)N(S(=O)(=O)c1ccc(Cl)cc1)C[C@@H](CO)O2)c1c(F)cccc1C(F)(F)F` [VI-51], the IC50 at RORγ-LBD and against RORγt was less than 15 µM each time.

With `O=C(Nc1ccc2c(c1)N(S(=O)(=O)c1ccc(Cl)cc1)C[C@@H](CO)O2)c1c(Cl)cccc1Cl` [VI-52], the IC50 on RORγ-LBD and on RORγt was less than 15 µM in each case.

With `N#Cc1cccc(S(=O)(=O)N2C[C@H](CO)Oc3ccc(NC(=O)c4c(F)cccc4C(F)(F)F)cc32)c1` [VI-62], the IC50 on RORγ-LBD and at RORγt was less than 15 µM each time.

As to `N#Cc1cccc(S(=O)(=O)N2C[C@H](CO)Oc3ccc(NC(=O)c4c(Cl)cccc4Cl)cc32)c1` [VI-63], the IC50 at RORγ-LBD and on RORγt was less than 15 µM throughout.

As to `O=C(Nc1ccc2c(c1)N(S(=O)(=O)c1ccc(Cl)cc1)C[C@H](CO)O2)c1c(F)cccc1C(F)(F)F` [VI-67], the IC50 on RORγ-LBD and at RORγt was less than 15 µM in each case.

Consider `COCC1CN(S(=O)(=O)c2ccc(F)c(F)c2)c2cc(NC(=O)c3c(Cl)cccc3Cl)ccc2O1` (stereo not shown) [VI-70], for which the IC50 on RORγ-LBD and against RORγt was less than 15 µM in each case.

Take `O=C(Nc1ccc2c(c1)N(S(=O)(=O)c1ccc(F)c(F)c1)C[C@@H](CO)O2)c1c(F)cccc1C(F)(F)F` [VI-72]: the IC50 at RORγ-LBD and at RORγt was less than 15 µM each time.

For the compound `O=C(Nc1ccc2c(c1)N(S(=O)(=O)c1ccc(F)c(F)c1)C[C@@H](CO)O2)c1c(Cl)cccc1Cl` [VI-73], the IC50 at RORγ-LBD and on RORγt was less than 15 µM in each case.

Consider `O=C(Nc1ccc2c(c1)N(S(=O)(=O)c1ccc(F)c(F)c1)C[C@@H](CO)O2)c1c(F)cccc1Cl` [VI-75], for which the IC50 at RORγ-LBD and on RORγt was less than 15 µM each time.

As for `O=C(Nc1ccc2c(c1)N(S(=O)(=O)c1ccc(F)c(F)c1)C[C@@H](CO)O2)c1c(F)cccc1F` [VI-76], the IC50 at RORγ-LBD and at RORγt was less than 15 µM each time.

With `COCC1CN(S(=O)(=O)c2ccc(F)c(F)c2)c2cc(NC(=O)Cc3ccc(F)cc3)ccc2O1` (stereo not shown) [VI-78], the IC50 at RORγ-LBD and against RORγt was less than 15 µM in each case.

With `COCC1CN(S(=O)(=O)c2ccc(F)c(F)c2)c2cc(NC(=O)c3c(F)cccc3C(F)(F)F)ccc2O1` (stereo not shown) [VI-79], the IC50 at RORγ-LBD and on RORγt was less than 15 µM throughout.

For the compound `COCC1CN(S(=O)(=O)c2ccc(F)c(F)c2)c2cc(NC(=O)c3c(F)cccc3Cl)ccc2O1` (stereo not shown) [VI-80], the IC50 at RORγ-LBD and against RORγt was less than 15 µM throughout.

For the compound `COCC1CN(S(=O)(=O)c2ccc(F)c(F)c2)c2cc(NC(=O)c3c(F)cccc3F)ccc2O1` (stereo not shown) [VI-81], the IC50 on RORγ-LBD and against RORγt was less than 15 µM in each case.

For `O=C(Nc1ccc2c(c1)N(S(=O)(=O)c1ccc(F)cc1)C[C@H](CO)O2)c1c(F)cccc1C(F)(F)F` [VI-82], the IC50 at RORγ-LBD and against RORγt was less than 15 µM in each case.

Turning to `O=C(Nc1ccc2c(c1)N(S(=O)(=O)c1ccc(F)cc1)C[C@H](CO)O2)c1c(Cl)cccc1Cl` [VI-83], the IC50 on RORγ-LBD and against RORγt was less than 15 µM each time.

As for `O=C(Nc1ccc2c(c1)N(S(=O)(=O)c1ccc(Cl)cc1)C[C@H](CO)O2)c1c(Cl)cccc1C(F)(F)F` [VI-84], the IC50 at RORγ-LBD and at RORγt was less than 15 µM each time.

As to `O=C(Nc1ccc2c(c1)N(S(=O)(=O)c1ccc(Cl)cc1)C[C@H](CO)O2)c1c(Cl)cccc1Cl` [VI-85], the IC50 on RORγ-LBD and against RORγt was less than 15 µM each time.

Take `O=C(Nc1ccc2c(c1)N(S(=O)(=O)c1ccc(Cl)cc1)C[C@H](CO)O2)c1c(F)cccc1Cl` [VI-86]: the IC50 on RORγ-LBD and against RORγt was less than 15 µM in each case.

For the compound `O=C(Nc1ccc2c(c1)N(S(=O)(=O)c1ccc(Cl)cc1)C[C@H](CO)O2)c1c(F)cccc1F` [VI-87], the IC50 on RORγ-LBD and against RORγt was less than 15 µM throughout.

For `CCOCC1CN(S(=O)(=O)c2ccc(F)c(F)c2)c2cc(NC(=O)c3c(Cl)cccc3C(F)(F)F)ccc2O1` (stereo not shown) [VI-88], the IC50 on RORγ-LBD and against RORγt was less than 15 µM each time.

(Values after patent US9512111B2, “N-sulfonylated tetrahydroquinolines and related bicyclic compounds for inhibition of RORγ activity and the treatment of disease” (Lycera Corporation, priority 2010, dated 2016).)
